Data published in the supplement of paper PMC12350171.

Key:
Bacteroides fragilis NT = experiment: IC25 growth inhibition; higher = less potent
Summary of the method: (§1)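 Under anaerobic conditions, OD578 was read hourly in a plate reader for at least three biological replicates of monocultures grown overnight in mGAM. Each culture started at an OD578 of 0.01 in pre-reduced plates holding twofold drug dilutions and 1% DMSO (or water). IC25 was reported as a tested interval: the lowest concentration where the monotonic median area under the growth curve dropped below the cutoff. That cutoff was 0.75.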

[1] = test system: Bacteroides thetaiotaomicron; experiment: IC25 growth inhibition; higher = less potent
Summary of the method: as §1

Bacteroides uniformis = experiment: IC25 growth inhibition; higher = less potent
Summary of the method: as §1

Bacteroides vulgatus = experiment: IC25 growth inhibition; higher = less potent
Summary of the method: as §1

Clostridium bolteae = experiment: IC25 growth inhibition; higher = less potent
Summary of the method: as §1

Clostridium perfringens = experiment: IC25 growth inhibition; higher = less potent
Summary of the method: as §1

Clostridium ramosum = experiment: IC25 growth inhibition; higher = less potent
Summary of the method: as §1

[2] = test system: Clostridium saccharolyticum; experiment: IC25 growth inhibition; higher = less potent
Summary of the method: as §1

Collinsella aerofaciens = experiment: IC25 growth inhibition; higher = less potent
Summary of the method: as §1

Coprococcus comes = experiment: IC25 growth inhibition; higher = less potent
Summary of the method: as §1

Dorea formicigenerans = experiment: IC25 growth inhibition; higher = less potent
Summary of the method: as §1

Escherichia coli ED1a = experiment: IC25 growth inhibition; higher = less potent
Summary of the method: as §1

Eubacterium rectale = experiment: IC25 growth inhibition; higher = less potent
Summary of the method: as §1

[3] = test system: Fusobacterium nucleatum subsp. Nucleatum; experiment: IC25 growth inhibition; higher = less potent
Summary of the method: as §1

Parabacteroides merdae = experiment: IC25 growth inhibition; higher = less potent
Summary of the method: as §1

Roseburia intestinalis = experiment: IC25 growth inhibition; higher = less potent
Summary of the method: as §1

Ruminococcus gnavus = experiment: IC25 growth inhibition; higher = less potent
Summary of the method: as §1

[4] = test system: Salmonella enterica typhimurium; experiment: IC25 growth inhibition; higher = less potent
Summary of the method: as §1

Shigella flexneri = experiment: IC25 growth inhibition; higher = less potent
Summary of the method: as §1

[5] = test system: Streptococcus parasanguinis; experiment: IC25 growth inhibition; higher = less potent
Summary of the method: as §1

Streptococcus salivarius = experiment: IC25 growth inhibition; higher = less potent
Summary of the method: as §1

Vibrio cholerae = experiment: IC25 growth inhibition; higher = less potent
Summary of the method: as §1

[6] = test system: Yersinia enterocolitica WA-314; experiment: IC25 growth inhibition; higher = less potent
Summary of the method: as §1

[7] = test system: Yersinia pseudotuberculosis; experiment: IC25 growth inhibition; higher = less potent
Summary of the method: as §1

[8] = test system: Com21 synthetic gut community; experiment: community biomass OD578 after 24 h drug treatment relative to untreated (fraction of untreated control); higher = more community growth; conditions: community: Com21 (Com20 + E. coli ED1a)
Experimental: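 Com21 (Com20 plus E. coli ED1a) was treated with drug for 24 h under anaerobic conditions in mGAM. Community OD578 was then measured and normalised to untreated Com21; mean of 3 biological replicates.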

[9] = drug pretreatment concentration 10 µM
[10] = drug pretreatment concentration 20 µM
[11] = drug pretreatment concentration 40 µM
[12] = drug pretreatment concentration 80 µM
[13] = drug pretreatment concentration 160 µM
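Throughout, for IC25 growth inhibition: lowest concentration where monotonic median growth AUC falls below 0.75 of drug-free control.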

Row | Structure (SMILES) | IC25 growth inhibition (Bacteroides fragilis NT) [µM] | IC25 growth inhibition [1] [µM] | IC25 growth inhibition (Bacteroides uniformis) [µM] | IC25 growth inhibition (Bacteroides vulgatus) [µM] | IC25 growth inhibition (Clostridium bolteae) [µM] | IC25 growth inhibition (Clostridium perfringens) [µM] | IC25 growth inhibition (Clostridium ramosum) [µM] | IC25 growth inhibition [2] [µM] | IC25 growth inhibition (Collinsella aerofaciens) [µM] | IC25 growth inhibition (Coprococcus comes) [µM] | IC25 growth inhibition (Dorea formicigenerans) [µM] | IC25 growth inhibition (Escherichia coli ED1a) [µM] | IC25 growth inhibition (Eubacterium rectale) [µM] | IC25 growth inhibition [3] [µM] | IC25 growth inhibition (Parabacteroides merdae) [µM] | IC25 growth inhibition (Roseburia intestinalis) [µM] | IC25 growth inhibition (Ruminococcus gnavus) [µM] | IC25 growth inhibition [4] [µM] | IC25 growth inhibition (Shigella flexneri) [µM] | IC25 growth inhibition [5] [µM] | IC25 growth inhibition (Streptococcus salivarius) [µM] | IC25 growth inhibition (Vibrio cholerae) [µM] | IC25 growth inhibition [6] [µM] | IC25 growth inhibition [7] [µM] | community biomass OD578 [8, 9] | community biomass OD578 [8, 10] | community biomass OD578 [8, 11] | community biomass OD578 [8, 12] | community biomass OD578 [8, 13] | community biomass OD578 ([8]; drug pretreatment concentration 2.5 µM) | community biomass OD578 ([8]; drug pretreatment concentration 5 µM)
1 | CC(CN1c2ccccc2Sc2ccccc21)N(C)C (stereo unspecified) [Promethazine] | ≤ 160 | ≤ 80 | > 160 | ≤ 20 | > 160 | ≤ 160 | > 160 | > 160 | > 160 | ≤ 160 | ≤ 160 | > 160 | ≤ 160 | > 160 | ≤ 10 | ≤ 160 | ≤ 160 | > 160 | > 160 | > 160 | ≤ 160 | ≤ 160 | > 160 | ≤ 160 | 0.987 | 1.01 | 0.99 | 0.991 | 0.949 | – | –
2 | CNCCCC1c2ccccc2C=Cc2ccccc21 [Protriptyline] | > 160 | ≤ 80 | ≤ 160 | ≤ 40 | > 160 | > 160 | > 160 | > 160 | > 160 | > 160 | > 160 | > 160 | > 160 | ≤ 160 | > 160 | > 160 | > 160 | > 160 | > 160 | > 160 | > 160 | > 160 | ≤ 160 | > 160 | 0.995 | 1.02 | 1.01 | 0.991 | 0.956 | – | –
3 | O=C1NCCN1CCN1CCC(c2cn(-c3ccc(F)cc3)c3ccc(Cl)cc23)CC1 [Sertindole] | ≤ 40 | ≤ 40 | ≤ 20 | ≤ 20 | ≤ 80 | ≤ 80 | ≤ 80 | ≤ 40 | ≤ 40 | ≤ 80 | ≤ 20 | > 160 | ≤ 20 | ≤ 40 | ≤ 40 | ≤ 20 | ≤ 40 | > 160 | > 80 | ≤ 80 | ≤ 20 | ≤ 80 | > 80 | ≤ 160 | 1.01 | 0.991 | 0.99 | 0.786 | 0.451 | – | –
4 | CCC(C)(C)C(=O)O[C@H]1C[C@@H](C)C=C2C=C[C@H](C)[C@H](CC[C@@H]3C[C@@H](O)CC(=O)O3)[C@H]21 [Simvastatin] | ≤ 40 | ≤ 40 | ≤ 40 | ≤ 20 | > 80 | ≤ 40 | ≤ 40 | ≤ 80 | ≤ 80 | > 80 | ≤ 80 | > 160 | ≤ 20 | > 80 | ≤ 40 | ≤ 20 | ≤ 40 | > 80 | > 80 | ≤ 80 | ≤ 20 | > 80 | > 80 | > 80 | – | 0.99 | 0.946 | 0.844 | 0.687 | – | –
5 | CN(N=O)C(=O)N[C@@H](C=O)[C@@H](O)[C@H](O)[C@H](O)CO [Streptozotocin] | ≤ 20 | ≤ 40 | ≤ 40 | ≤ 20 | ≤ 2.5 | > 160 | < 1.25 | < 1.25 | ≤ 10 | ≤ 2.5 | > 160 | ≤ 2.5 | > 160 | < 1.25 | ≤ 20 | < 1.25 | < 1.25 | ≤ 10 | ≤ 2.5 | ≤ 20 | > 160 | ≤ 2.5 | ≤ 2.5 | ≤ 2.5 | 0.909 | 0.921 | 0.872 | 0.859 | 0.889 | – | –
6 | CC/C(=C(\c1ccccc1)c1ccc(OCCN(C)C)cc1)c1ccccc1 [Tamoxifen] | > 40 | ≤ 40 | ≤ 40 | > 40 | > 40 | > 40 | > 40 | > 40 | ≤ 40 | > 40 | ≤ 20 | > 40 | ≤ 5 | > 40 | > 40 | ≤ 20 | ≤ 40 | > 40 | > 40 | > 40 | > 40 | > 40 | > 40 | > 40 | 1 | 0.977 | 0.719 | – | – | 1 | 1.01
7 | C[C@]1(Cn2ccnn2)[C@H](C(=O)O)N2C(=O)C[C@H]2S1(=O)=O [Tazobactam] | ≤ 10 | ≤ 20 | ≤ 5 | ≤ 10 | > 160 | ≤ 80 | > 160 | ≤ 80 | ≤ 160 | ≤ 80 | ≤ 20 | ≤ 160 | ≤ 5 | ≤ 20 | ≤ 10 | ≤ 40 | ≤ 160 | ≤ 160 | ≤ 160 | ≤ 40 | ≤ 160 | > 160 | > 160 | > 160 | 0.834 | 0.79 | 0.716 | 0.733 | 0.722 | – | –
8 | CCCc1nc2c(C)cc(-c3nc4ccccc4n3C)cc2n1Cc1ccc(-c2ccccc2C(=O)O)cc1 [Telmisartan] | > 160 | > 160 | > 160 | > 160 | > 80 | > 160 | ≤ 40 | > 80 | > 160 | > 80 | > 80 | > 160 | > 80 | > 80 | > 160 | > 160 | > 160 | > 160 | > 40 | > 160 | ≤ 40 | > 40 | > 40 | > 40 | 0.994 | 0.966 | 0.932 | 0.892 | 0.956 | – | –
